Source: US8299022B2, “Analogs of ghrelin substituted at the N-terminal” (IPSEN Pharma S.A.S., priority 2006, dated 2012)
Read-outs that look alike come from different tables or passages of the source. * marks the point of attachment. Octanoyl = CCCCCCCC(=O)*

Tests used:
[1] = Rat plasma ½ life (stability in plasma in a rat model); format: in vitro ADME
Method: A selection of the preferred embodiments listed above was analyzed to determine stability, i.e. ½ life in plasma in a rat model using techniques known to those skilled in the art.

human GSH receptor = target: T1, human GSH receptor (Homo sapiens, UniProt Q92847); assay: In vitro GSH receptor mediated intracellular iCa2+ mobilization (Fura-2AM, CHO-K1 cells); format: cell-based; details: CHO-K1 cells expressing the human receptor, 37° C.
T1 construct: The full length human GHS-R was subcloned into the mammalian expression vector pcDNA 3.1; expressed in transfected cells
T1 sequence (Q92847 whole entry): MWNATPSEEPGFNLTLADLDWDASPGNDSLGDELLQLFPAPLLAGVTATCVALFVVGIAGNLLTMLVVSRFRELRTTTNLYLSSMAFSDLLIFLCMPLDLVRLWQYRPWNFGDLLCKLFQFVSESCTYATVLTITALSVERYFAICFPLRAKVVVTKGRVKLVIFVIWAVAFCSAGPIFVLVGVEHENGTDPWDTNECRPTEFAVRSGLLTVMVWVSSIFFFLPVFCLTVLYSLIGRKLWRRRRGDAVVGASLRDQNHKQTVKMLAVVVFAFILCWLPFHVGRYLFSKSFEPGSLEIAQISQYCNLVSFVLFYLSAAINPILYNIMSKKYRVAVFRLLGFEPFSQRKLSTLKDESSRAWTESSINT
Method: 2A. In vitro GSH Receptor Mediated Intracellular iCa^2+Mobilization
The foregoing CHO-K1 cells expressing the human GSH receptor were harvested by incubating in a 0.3% EDTA/phosphate buffered saline solution at 25° C.; the cells were then washed 2 times by centrifugation. The washed cells were resuspended in Hank's buffered saline solution (HBSS) for loading of the fluorescent Ca^2+ indicator Fura-2AM. Cell suspensions of approximately 10^6 cells/ml were incubated with 2 μM Fura-2AM for about 30 minutes at about 25° C. Unloaded Fura-2AM was removed by centrifugation twice in HBSS and the final suspensions were transferred to a spectrofluorometer (model Hitachi F-2000® Tokyo, Japan) equipped with a magnetic stirring mechanism and a temperature-regulated cuvette holder. After equilibration to 37° C., the ghrelin analogs were added for measurement of intracellular Ca^2+ mobilization. The excitation and emission wavelengths were 340 and 510 nm, respectively. An increase in the amount of Ca^2+ measured was indicative of agonist activity of a tested peptide while a decrease in the amount (or lack of) Ca^2+ measure was indicative of antagonist activity of a tested peptide.

[2] = rat, in vivo; cited from earlier work
[3] = human, in vivo; cited from earlier work

Row | Rat Plasma ½ life [1] | Compound | agonist/antagonist activity at the ghrelin receptor (intracellular Ca2+ mobilization) (human GSH receptor) | apparent half-life of exogenous ghrelin [2] | apparent half-life of exogenous ghrelin [3]
1 | 9.4 h | CCCCCCNC(=O)CC[C@H](NC(=O)C(C)(C)NC(=O)C1CCN(C(C)=O)CC1)C(=O)N[C@@H](Cc1ccccc1)C(=O)N[C@@H](CC(C)C)C(=O)N[C@@H](CO)C(=O)N1CCC[C@H]1C(=O)N[C@@H](CCC(=O)O)C(=O)N[C@@H](Cc1c[nH]cn1)C(=O)NC(C)(C)C(=O)N[C@@H](CCCNC(=N)N)C(=O)N[C@H](C(=O)N[C@@H](CCC(N)=O)C(=O)N[C@@H](CCC(N)=O)C(=O)N[C@@H](CCCNC(=N)N)C(=O)N[C@@H](CCCCN)C(=O)N[C@@H](CCC(=O)O)C(=O)N[C@@H](CO)C(=O)N[C@@H](CCCCN)C(=O)N[C@@H](CCCCN)C(=O)N1CCC[C@H]1C(=O)N1CCC[C@H]1C(=O)N[C@@H](C)C(=O)N[C@@H](CCCCN)C(=O)N[C@@H](CC(C)C)C(=O)N[C@@H](CCC(N)=O)C(=O)N1CCC[C@H]1C(=O)N[C@@H](CCCNC(=N)N)C(N)=O)C(C)C [Example 1, (Ac-Inp^1, Aib^2, 10, Glu(NH-hexyl)^3)hGhrelin(1-28)-NH2] | antagonistic activity | – | –
2 | – | H-Gly-Ser-Ser-Phe-Leu-Ser-Pro-Glu-His-Gln-Arg-Val-Gln-Gln-Arg-Lys-Glu-Ser-Lys-Lys-Pro-Pro-Ala-Lys-Leu-Gln-Pro-Arg-NH2 (H-GSS(Octanoyl)FLSPEHQRVQQRKESKKPPAKLQPR-NH2; listed as Homo sapiens) [ghrelin] | – | 30 min | 10 min
3 | 10.0 h | CCCCCCNC(=O)CC[C@H](NC(=O)C(C)(C)NC(=O)C1(N)CCNCC1)C(=O)N[C@@H](Cc1ccccc1)C(=O)N[C@@H](CC(C)C)C(=O)N[C@@H](CO)C(=O)N1CCC[C@H]1C(=O)N[C@@H](CCC(=O)O)C(=O)N[C@@H](Cc1c[nH]cn1)C(=O)NC(C)(C)C(=O)N[C@@H](CCCNC(=N)N)C(=O)N[C@H](C(=O)N[C@@H](CCC(N)=O)C(=O)N[C@@H](CCC(N)=O)C(=O)N[C@@H](CCCNC(=N)N)C(=O)N[C@@H](CCCCN)C(=O)N[C@@H](CCC(=O)O)C(=O)N[C@@H](CO)C(=O)N[C@@H](CCCCN)C(=O)N[C@@H](CCCCN)C(=O)N1CCC[C@H]1C(=O)N1CCC[C@H]1C(=O)N[C@@H](C)C(=O)N[C@@H](CCCCN)C(=O)N[C@@H](CC(C)C)C(=O)N[C@@H](CCC(N)=O)C(=O)N1CCC[C@H]1C(=O)N[C@@H](CCCNC(=N)N)C(N)=O)C(C)C [Example 4, (1-Apc^1, Aib^2, 10, Glu(NH-hexyl)^3)-hGhrelin(1-28)-NH2] | – | – | –
4 | 1.2 h | CCCCCCCC(=O)OC[C@H](NC(=O)C(C)(C)NC(=O)C1CCNCC1)C(=O)N[C@@H](Cc1ccccc1)C(=O)N[C@@H](CC(C)C)C(=O)N[C@@H](CO)C(=O)N1CCC[C@H]1C(=O)N[C@@H](CCC(=O)O)C(=O)N[C@@H](Cc1c[nH]cn1)C(=O)NC(C)(C)C(=O)N[C@@H](CCCNC(=N)N)C(=O)N[C@H](C(=O)N[C@@H](CCC(N)=O)C(=O)N[C@@H](CCC(N)=O)C(=O)N[C@@H](CCCNC(=N)N)C(=O)N[C@@H](CCCCN)C(=O)N[C@@H](CCC(=O)O)C(=O)N[C@@H](CO)C(=O)N[C@@H](CCCCN)C(=O)N[C@@H](CCCCN)C(=O)N1CCC[C@H]1C(=O)N1CCC[C@H]1C(=O)N[C@@H](C)C(=O)N[C@@H](CCCCN)C(=O)N[C@@H](CC(C)C)C(=O)N[C@@H](CCC(N)=O)C(=O)N1CCC[C@H]1C(=O)N[C@@H](CCCNC(=N)N)C(N)=O)C(C)C [Example 8, (Inp^1, Aib^2, 10)hGhrelin(1-28)-NH2] | – | – | –

Row | Compound | Rat Plasma ½ life [1] | agonist/antagonist activity at the ghrelin receptor (intracellular Ca2+ mobilization) (human GSH receptor) | apparent half-life of exogenous ghrelin [2] | apparent half-life of exogenous ghrelin [3]
5 | CCCCCCNC(=O)CC[C@H](NC(=O)C(C)(C)NC(=O)C1CCNCC1)C(=O)N[C@@H](Cc1ccccc1)C(=O)N[C@@H](CC(C)C)C(=O)N[C@@H](CO)C(=O)N1CCC[C@H]1C(=O)N[C@@H](CCC(=O)O)C(=O)N[C@@H](Cc1c[nH]cn1)C(=O)NC(C)(C)C(=O)N[C@@H](CCCNC(=N)N)C(=O)N[C@H](C(=O)N[C@@H](CCC(N)=O)C(=O)N[C@@H](CCC(N)=O)C(=O)N[C@@H](CCCNC(=N)N)C(=O)N[C@@H](CCCCN)C(=O)N[C@@H](CCC(=O)O)C(=O)N[C@@H](CO)C(=O)N[C@@H](CCCCN)C(=O)N[C@@H](CCCCN)C(=O)N1CCC[C@H]1C(=O)N1CCC[C@H]1C(=O)N[C@@H](C)C(=O)N[C@@H](CCCCN)C(=O)N[C@@H](CC(C)C)C(=O)N[C@@H](CCC(N)=O)C(=O)N1CCC[C@H]1C(=O)N[C@@H](CCCNC(=N)N)C(N)=O)C(C)C [Example 3, (Inp^1, Aib^2, 10, Glu(NH-hexyl)^3)hGhrelin(1-28)-NH2] | 10.6 h | antagonistic activity | – | –
